In one assay the test system is S. aureus. The assay is described as follows: Bacterial proliferation test, 96 well microplate (OD 450 nm, 24 h). It counts as cell-based. To be noted: positive control = 100% proliferation. Here is the method: (§1) The microbial strains used for the tests are the following bacteria: • P. aeruginosa • S. aureus The tests were conducted on microplates to evaluate the MIC (Minimum Inhibitory Concentration). […] Each well is inoculated with 50 μL of bacterial suspension to be tested in a Muller-Hinton (MH) broth+150 μL of diluted test product solution. […] Each specimen is tested in triplicate. The optical densities (OD) are read a first time at time 0 (T0) at 450 nm. The plates are then incubated for 24 h at 37° C. with agitation. At the end of incubation, the OD is measured again at 450 nm (T24). The proliferation percentage is calculated as follows: Proliferation=(DOT24−DOT0)/(DOT24Control+−DOT0Control+)

For the next assay, the system named is P. aeruginosa. The assay is described as above. The assay is classed as cell-based. To be noted: positive control = 100% proliferation. As for the experimental part:
as §1

Turning to glucose oxidase [Formula 8], the “proliferation percentage of S. aureus” value was 81% in the assay with S. aureus (formula at 1.5% (v/v)), 72% in the assay with S. aureus (formula at 3% (v/v)), 54% with S. aureus (formula at 6% (v/v)) and 46% in the assay on S. aureus (formula at 9% (v/v)). Further, the “proliferation percentage of P aeruginosa” value stood at 96% with P. aeruginosa (formula at 1.5% (v/v)), 96% with P. aeruginosa (formula at 3% (v/v)), 91% in the assay on P. aeruginosa (formula at 6% (v/v)) and 86% in the assay with P. aeruginosa (formula at 9% (v/v)).
Turning to `O=C[C@H](O)[C@@H](O)[C@H](O)[C@H](O)CO` [Formula 9, glucose], the “proliferation percentage of S. aureus” value with S. aureus (formula at 1.5% (v/v)) came to 96%; in the assay on S. aureus (formula at 3% (v/v)) it was 86%; in the assay on S. aureus (formula at 6% (v/v)), 83%; in the assay on S. aureus (formula at 9% (v/v)), 72%. Besides, the “proliferation percentage of P aeruginosa” value with P. aeruginosa (formula at 1.5% (v/v)) is 100%; in the assay with P. aeruginosa (formula at 3% (v/v)) it was 206%; in the assay on P. aeruginosa (formula at 6% (v/v)), 206%; in the assay on P. aeruginosa (formula at 9% (v/v)), 113%.
